PubChem BioAssay (NCI)
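Cultured in 96-well plates, cells were exposed to test compound for 48 hours across five concentrations. TGI: total growth inhibition.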

How the values were obtained:
Assay in all cases: NCI-60 cell line screen, 48 h
786-0 renal = tested on: 786-0 renal
A498 renal = tested on: A498 renal
A549 NSCLC = tested on: A549 NSCLC
ACHN renal = tested on: ACHN renal
BT-549 breast = tested on: BT-549 breast
COLO 205 colon = tested on: COLO 205 colon
DU-145 prostate = tested on: DU-145 prostate
EKVX NSCLC = tested on: EKVX NSCLC
HCC-2998 colon = tested on: HCC-2998 colon
HCT-116 colon = tested on: HCT-116 colon
HCT-15 colon = tested on: HCT-15 colon
HOP-62 NSCLC = tested on: HOP-62 NSCLC
HS 578T breast = tested on: HS 578T breast
K-562 leukemia = tested on: K-562 leukemia
KM12 colon = tested on: KM12 colon
LOX IMVI melanoma = tested on: LOX IMVI melanoma
M14 melanoma = tested on: M14 melanoma
MCF7 breast = tested on: MCF7 breast
MDA-MB-231 breast = tested on: MDA-MB-231 breast
MDA-MB-435 = tested on: MDA-MB-435
MDA-N = tested on: MDA-N
MOLT-4 leukemia = tested on: MOLT-4 leukemia
NCI-H226 lung = tested on: NCI-H226 lung
NCI-H23 lung = tested on: NCI-H23 lung
NCI-H460 lung = tested on: NCI-H460 lung
NCI/ADR-RES ovarian = tested on: NCI/ADR-RES ovarian
OVCAR-3 ovarian = tested on: OVCAR-3 ovarian
OVCAR-4 ovarian = tested on: OVCAR-4 ovarian
OVCAR-5 ovarian = tested on: OVCAR-5 ovarian
OVCAR-8 ovarian = tested on: OVCAR-8 ovarian
PC-3 prostate = tested on: PC-3 prostate
RPMI-8226 leukemia = tested on: RPMI-8226 leukemia
RXF 393 renal = tested on: RXF 393 renal
SF-268 CNS = tested on: SF-268 CNS
SF-295 CNS = tested on: SF-295 CNS
SK-MEL-2 melanoma = tested on: SK-MEL-2 melanoma
SK-MEL-28 melanoma = tested on: SK-MEL-28 melanoma
SK-OV-3 ovarian = tested on: SK-OV-3 ovarian
SN12C renal = tested on: SN12C renal
SNB-19 CNS = tested on: SNB-19 CNS
SNB-75 CNS = tested on: SNB-75 CNS
SR leukemia = tested on: SR leukemia
SW-620 colon = tested on: SW-620 colon
T-47D breast = tested on: T-47D breast
TK-10 renal = tested on: TK-10 renal
U251 CNS = tested on: U251 CNS
UACC-257 melanoma = tested on: UACC-257 melanoma
UACC-62 melanoma = tested on: UACC-62 melanoma
UO-31 renal = tested on: UO-31 renal

Measured: TGI

O=C(O)CCC(N=C(C(=NC(CCC(=O)O)C(=O)O)c1ccccc1)c1ccccc1)C(=O)O (centres undefined)
> 100 µM: all assays above
